{
  "source": "patent US8802597B2",
  "about": "“Herbicidal pyrimidines” (E I du Pont de Nemours and Company, priority 2003, dated 2014)",
  "type_in_all_cases": "in vivo",
  "key": {"[1]": {"system": "smallflower umbrella sedge (Cyperus difformis)", "assay": "Test E flooded paddy water application", "details": "Flood, 21 days, scale 0 to 100 (0 no effect, 100 complete control)", "summary_of_the_method": "(§1)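 Weeds sown in sterilized Tama silt loam (2.6% organic matter), greenhouse 29.5/26.7° C, 16-h photoperiod; at 2.0–2.5-leaf stage pots flooded to 3 cm and compound added to paddy water. Visual rating vs untreated controls after 21 days, 0 (no effect) to 100 (complete control).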"}, "[2]": {"system": "purple redstem (Ammannia coccinea)", "assay": "Test E flooded paddy water application", "details": "Flood, 21 days, scale 0 to 100 (0 no effect, 100 complete control)", "summary_of_the_method": "as §1"}, "[3]": {"system": "transplanted rice seedlings (Oryza sativa cv. ‘Japonica-M202’)", "assay": "Test E flooded paddy water application", "details": "Flood, 21 days, scale 0 to 100 (0 no effect, 100 complete control)", "summary_of_the_method": "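Response scored visually on a 0–100 scale (100 = complete control) at 21 days against untreated pots. Treatment was into paddy water 3 cm deep over silt loam, with plants at the 2.0–2.5-leaf stage, grown under 16-h light at 29.5/26.7 °C day/night.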"}, "[4]": {"system": "junglerice (Echinochloa colona)", "assay": "Test E flooded paddy water application", "details": "Flood, 21 days, scale 0 to 100 (0 no effect, 100 complete control)", "summary_of_the_method": "as §1"}, "[5]": {"system": "rice flatsedge (Cyperus iria)", "assay": "Test E flooded paddy water application", "details": "Flood, 21 days, scale 0 to 100 (0 no effect, 100 complete control)", "summary_of_the_method": "as §1"}, "[6]": {"system": "late watergrass (Echinochloa oryzicola)", "assay": "Test E flooded paddy water application", "details": "Flood, 21 days, scale 0 to 100 (0 no effect, 100 complete control)", "summary_of_the_method": "as §1"}, "[7]": {"system": "barnyardgrass (Echinochloa crus-galli)", "assay": "Test E flooded paddy water application", "details": "Flood, 21 days, scale 0 to 100 (0 no effect, 100 complete control)", "summary_of_the_method": "as §1"}, "[8]": {"system": "early watergrass (Echinochloa oryzoides)", "assay": "Test E flooded paddy water application", "details": "Flood, 21 days, scale 0 to 100 (0 no effect, 100 complete control)", "summary_of_the_method": "as §1"}, "[9]": {"system": "ducksalad (Heteranthera limosa)", "assay": "Test E flooded paddy water application", "details": "Flood, 21 days, scale 0 to 100 (0 no effect, 100 complete control)", "summary_of_the_method": "as §1"}, "[10]": {"system": "bearded (brdd.) sprangletop (Leptochloa fusca ssp. fascicularis)", "assay": "Test E flooded paddy water application", "details": "Flood, 21 days, scale 0 to 100 (0 no effect, 100 complete control)", "summary_of_the_method": "as §1"}, "[11]": {"system": "water seeded rice seedlings (Oryza sativa cv. ‘Japonica-M202’)", "assay": "Test E flooded paddy water application", "details": "Flood, 21 days, scale 0 to 100 (0 no effect, 100 complete control)", "summary_of_the_method": "as §1"}, "[12]": {"system": "morningglory (Ipomoea spp.)", "assay": "Test A pre/postemergence", "summary_of_the_method": "(§2)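 Ratings: 0 = no effect, 100 = complete control, assessed visually about ten days post-treatment in a greenhouse. Applications: soil-directed preemergence spray and postemergence spray on 1- to 2-leaf plants, both using a surfactant-containing non-phytotoxic solvent formulation.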"}, "[13]": {"system": "giant foxtail (Setaria faberi)", "assay": "Test A pre/postemergence", "summary_of_the_method": "as §2"}, "[14]": {"system": "barnyardgrass (Echinochloa crus-galli)", "assay": "Test A pre/postemergence", "summary_of_the_method": "as §2"}, "[15]": {"system": "crabgrass (Digitaria sanguinalis)", "assay": "Test A pre/postemergence", "summary_of_the_method": "as §2"}, "[16]": {"system": "velvetleaf (Abutilon theophrasti)", "assay": "Test A pre/postemergence", "summary_of_the_method": "as §2"}, "[17]": {"system": "redroot pigweed (Amaranthus retroflexus)", "assay": "Test A pre/postemergence", "summary_of_the_method": "as §2"}, "[18]": {"details": "Postemergence, 125 g ai/ha, 0 to 100 scale (0 no effect, 100 complete control)"}, "[19]": {"details": "Postemergence, 500 g ai/ha, 0 to 100 scale (0 no effect, 100 complete control)"}, "[20]": {"details": "Preemergence, 125 g ai/ha, 0 to 100 scale where 0 is no effect and 100 is complete control, approximately ten days"}, "[21]": {"details": "Preemergence, 500 g ai/ha, 0 to 100 scale where 0 is no effect and 100 is complete control, approximately ten days"}},
  "data": [
    {"smiles": "CCOC(=O)c1nc(-c2ccc(Cl)cc2Cl)nc(N)c1Cl", "note": "[Compound 72]", "values": [
      {"measurement": "Sedge, Umbrella plant response rating", "setting": "[1]; 32 g ai/ha", "value": 30},
      {"measurement": "Sedge, Umbrella plant response rating", "setting": "[1]; 64 g ai/ha", "value": 75},
      {"measurement": "Sedge, Umbrella plant response rating", "setting": "[1]; 125 g ai/ha", "value": 90},
      {"measurement": "Sedge, Umbrella plant response rating", "setting": "[1]; 250 g ai/ha", "value": 100},
      {"measurement": "Plant response rating, Sedge, Umbrella", "setting": "[1]; 16 g ai/ha", "value": 0},
      {"measurement": "Redstem plant response rating", "setting": "[2]; 32 g ai/ha", "value": 25},
      {"measurement": "Redstem plant response rating", "setting": "[2]; 64 g ai/ha", "value": 25},
      {"measurement": "Redstem plant response rating", "setting": "[2]; 125 g ai/ha", "value": 35},
      {"measurement": "Redstem plant response rating", "setting": "[2]; 250 g ai/ha", "value": 100},
      {"measurement": "Plant response rating, Redstem", "setting": "[2]; 16 g ai/ha", "value": 0},
      {"measurement": "Rice, Transplanted plant response rating", "setting": "[3]; 32 g ai/ha", "value": 0},
      {"measurement": "Rice, Transplanted plant response rating", "setting": "[3]; 64 g ai/ha", "value": 0},
      {"measurement": "Rice, Transplanted plant response rating", "setting": "[3]; 125 g ai/ha", "value": 0},
      {"measurement": "Rice, Transplanted plant response rating", "setting": "[3]; 250 g ai/ha", "value": 0},
      {"measurement": "Plant response rating, Rice, Transplanted", "setting": "[3]; 16 g ai/ha", "value": 0},
      {"measurement": "Junglerice plant response rating", "setting": "[4]; 32 g ai/ha", "value": 0},
      {"measurement": "Junglerice plant response rating", "setting": "[4]; 64 g ai/ha", "value": 0},
      {"measurement": "Junglerice plant response rating", "setting": "[4]; 125 g ai/ha", "value": 0},
      {"measurement": "Junglerice plant response rating", "setting": "[4]; 250 g ai/ha", "value": 0},
      {"measurement": "Plant response rating, Junglerice", "setting": "[4]; 16 g ai/ha", "value": 0},
      {"measurement": "Flatsedge, Rice plant response rating", "setting": "[5]; 32 g ai/ha", "value": 100},
      {"measurement": "Flatsedge, Rice plant response rating", "setting": "[5]; 64 g ai/ha", "value": 100},
      {"measurement": "Flatsedge, Rice plant response rating", "setting": "[5]; 125 g ai/ha", "value": 100},
      {"measurement": "Flatsedge, Rice plant response rating", "setting": "[5]; 250 g ai/ha", "value": 100},
      {"measurement": "Plant response rating, Flatsedge, Rice", "setting": "[5]; 16 g ai/ha", "value": 90},
      {"measurement": "Watergrass, Late plant response rating", "setting": "[6]; 32 g ai/ha", "value": 0},
      {"measurement": "Watergrass, Late plant response rating", "setting": "[6]; 64 g ai/ha", "value": 0},
      {"measurement": "Watergrass, Late plant response rating", "setting": "[6]; 125 g ai/ha", "value": 0},
      {"measurement": "Watergrass, Late plant response rating", "setting": "[6]; 250 g ai/ha", "value": 0},
      {"measurement": "Plant response rating, Watergrass, Late", "setting": "[6]; 16 g ai/ha", "value": 0},
      {"measurement": "Barnyardgrass plant response rating", "setting": "[7]; 32 g ai/ha", "value": 0},
      {"measurement": "Barnyardgrass plant response rating", "setting": "[7]; 125 g ai/ha", "value": 0},
      {"measurement": "Barnyardgrass plant response rating", "setting": "[7]; 250 g ai/ha", "value": 0},
      {"measurement": "Watergrass, Early plant response rating", "setting": "[8]; 32 g ai/ha", "value": 0},
      {"measurement": "Watergrass, Early plant response rating", "setting": "[8]; 64 g ai/ha", "value": 0},
      {"measurement": "Watergrass, Early plant response rating", "setting": "[8]; 125 g ai/ha", "value": 0},
      {"measurement": "Watergrass, Early plant response rating", "setting": "[8]; 250 g ai/ha", "value": 0},
      {"measurement": "Plant response rating, Watergrass, Early", "setting": "[8]; 16 g ai/ha", "value": 0},
      {"measurement": "Ducksalad plant response rating", "setting": "[9]; 32 g ai/ha", "value": 80},
      {"measurement": "Ducksalad plant response rating", "setting": "[9]; 64 g ai/ha", "value": 100},
      {"measurement": "Ducksalad plant response rating", "setting": "[9]; 125 g ai/ha", "value": 100},
      {"measurement": "Ducksalad plant response rating", "setting": "[9]; 250 g ai/ha", "value": 100},
      {"measurement": "Plant response rating, Ducksalad", "setting": "[9]; 16 g ai/ha", "value": 80},
      {"measurement": "Sprangletop, Brdd. plant response rating", "setting": "[10]; 32 g ai/ha", "value": 0},
      {"measurement": "Sprangletop, Brdd. plant response rating", "setting": "[10]; 64 g ai/ha", "value": 0},
      {"measurement": "Sprangletop, Brdd. plant response rating", "setting": "[10]; 125 g ai/ha", "value": 0},
      {"measurement": "Sprangletop, Brdd. plant response rating", "setting": "[10]; 250 g ai/ha", "value": 0},
      {"measurement": "Plant response rating, Sprangletop, Brdd.", "setting": "[10]; 16 g ai/ha", "value": 0},
      {"measurement": "Rice, Water Seeded plant response rating", "setting": "[11]; 32 g ai/ha", "value": 0},
      {"measurement": "Rice, Water Seeded plant response rating", "setting": "[11]; 64 g ai/ha", "value": 0},
      {"measurement": "Rice, Water Seeded plant response rating", "setting": "[11]; 125 g ai/ha", "value": 0},
      {"measurement": "Rice, Water Seeded plant response rating", "setting": "[11]; 250 g ai/ha", "value": 0},
      {"measurement": "Plant response rating, Rice, Water Seeded", "setting": "[11]; 16 g ai/ha", "value": 0},
      {"measurement": "Plant response rating, Morningglory", "setting": "[12]; [18]", "value": 55},
      {"measurement": "Plant response rating, Morningglory", "setting": "[12]; [19]", "value": 70},
      {"measurement": "Plant response rating, Morningglory", "setting": "[12]; [20]", "value": 0},
      {"measurement": "Plant response rating, Morningglory", "setting": "[12]; [21]", "value": 0},
      {"measurement": "Plant response rating, Foxtail, Giant", "setting": "[13]; [18]", "value": 0},
      {"measurement": "Plant response rating, Foxtail, Giant", "setting": "[13]; [19]", "value": 0},
      {"measurement": "Plant response rating, Foxtail, Giant", "setting": "[13]; [20]", "value": 0},
      {"measurement": "Plant response rating, Foxtail, Giant", "setting": "[13]; [21]", "value": 0},
      {"measurement": "Plant response rating, Barnyardgrass", "setting": "[14]; [18]", "value": 0},
      {"measurement": "Plant response rating, Barnyardgrass", "setting": "[14]; [19]", "value": 0},
      {"measurement": "Plant response rating, Barnyardgrass", "setting": "[14]; [20]", "value": 0},
      {"measurement": "Plant response rating, Barnyardgrass", "setting": "[14]; [21]", "value": 0},
      {"measurement": "Plant response rating, Crabgrass", "setting": "[15]; [18]", "value": 10},
      {"measurement": "Plant response rating, Crabgrass", "setting": "[15]; [19]", "value": 30},
      {"measurement": "Plant response rating, Crabgrass", "setting": "[15]; [20]", "value": 0},
      {"measurement": "Plant response rating, Crabgrass", "setting": "[15]; [21]", "value": 0},
      {"measurement": "Plant response rating, Velvetleaf", "setting": "[16]; [18]", "value": 85},
      {"measurement": "Plant response rating, Velvetleaf", "setting": "[16]; [19]", "value": 85},
      {"measurement": "Plant response rating, Velvetleaf", "setting": "[16]; [20]", "value": 40},
      {"measurement": "Plant response rating, Velvetleaf", "setting": "[16]; [21]", "value": 55},
      {"measurement": "Plant response rating, Pigweed", "setting": "[17]; [18]", "value": 95},
      {"measurement": "Plant response rating, Pigweed", "setting": "[17]; [19]", "value": 95},
      {"measurement": "Plant response rating, Pigweed", "setting": "[17]; [20]", "value": 75},
      {"measurement": "Plant response rating, Pigweed", "setting": "[17]; [21]", "value": 100}
    ]}
  ]
}
